Experimental data taken from PubChem BioAssay (NCI).
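Dose response: 5 concentrations. Exposure: 48 h. Format: 96-well plates. Endpoint: linear interpolation; highest concentration if not reached. TGI: total growth inhibition.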

What was measured:
Assay in all cases: NCI-60 cell line screen, 48 h
786-0 renal = system: 786-0 renal
A498 renal = system: A498 renal
A549 NSCLC = system: A549 NSCLC
ACHN renal = system: ACHN renal
CCRF-CEM leukemia = system: CCRF-CEM leukemia
COLO 205 colon = system: COLO 205 colon
DLD-1 colon = system: DLD-1 colon
DMS 114 small cell lung = system: DMS 114 small cell lung
DMS 273 small cell lung = system: DMS 273 small cell lung
EKVX NSCLC = system: EKVX NSCLC
HCC-2998 colon = system: HCC-2998 colon
HCT-116 colon = system: HCT-116 colon
HCT-15 colon = system: HCT-15 colon
HL-60(TB) leukemia = system: HL-60(TB) leukemia
HOP-18 NSCLC = system: HOP-18 NSCLC
HOP-62 NSCLC = system: HOP-62 NSCLC
HOP-92 NSCLC = system: HOP-92 NSCLC
HT29 colon = system: HT29 colon
IGROV1 ovarian = system: IGROV1 ovarian
K-562 leukemia = system: K-562 leukemia
KM12 colon = system: KM12 colon
KM20L2 colon = system: KM20L2 colon
LOX IMVI melanoma = system: LOX IMVI melanoma
LXFL 529 NSCLC = system: LXFL 529 NSCLC
M14 melanoma = system: M14 melanoma
M19-MEL melanoma = system: M19-MEL melanoma
MALME-3M melanoma = system: MALME-3M melanoma
MOLT-4 leukemia = system: MOLT-4 leukemia
NCI-H23 lung = system: NCI-H23 lung
NCI-H460 lung = system: NCI-H460 lung
NCI-H522 lung = system: NCI-H522 lung
OVCAR-3 ovarian = system: OVCAR-3 ovarian
OVCAR-4 ovarian = system: OVCAR-4 ovarian
OVCAR-5 ovarian = system: OVCAR-5 ovarian
OVCAR-8 ovarian = system: OVCAR-8 ovarian
RPMI-8226 leukemia = system: RPMI-8226 leukemia
RXF 393 renal = system: RXF 393 renal
SF-268 CNS = system: SF-268 CNS
SF-295 CNS = system: SF-295 CNS
SF-539 CNS = system: SF-539 CNS
SK-MEL-2 melanoma = system: SK-MEL-2 melanoma
SK-MEL-28 melanoma = system: SK-MEL-28 melanoma
SK-OV-3 ovarian = system: SK-OV-3 ovarian
SN12C renal = system: SN12C renal
SNB-19 CNS = system: SNB-19 CNS
SNB-75 CNS = system: SNB-75 CNS
SNB-78 CNS = system: SNB-78 CNS
SW-620 colon = system: SW-620 colon
TK-10 renal = system: TK-10 renal
U251 CNS = system: U251 CNS
UACC-257 melanoma = system: UACC-257 melanoma
UACC-62 melanoma = system: UACC-62 melanoma
UO-31 renal = system: UO-31 renal

Measured: TGI

C=CCNC(=O)ON1C(=O)CCC1=O
> 100 µM: all assays above
